Laboratory results from paper PMC5392419 (Pharmacological research, 2017).

Tests used:
[1] = molecular target: T1, ATP-binding cassette subfamily G member 2 (ABCG2) (Homo sapiens, UniProt Q9UNQ0); assay: [3H]-mitoxantrone accumulation and efflux assay in ABCG2-overexpressing cells; type: cell-based
T1 sequence (Q9UNQ0 1-655): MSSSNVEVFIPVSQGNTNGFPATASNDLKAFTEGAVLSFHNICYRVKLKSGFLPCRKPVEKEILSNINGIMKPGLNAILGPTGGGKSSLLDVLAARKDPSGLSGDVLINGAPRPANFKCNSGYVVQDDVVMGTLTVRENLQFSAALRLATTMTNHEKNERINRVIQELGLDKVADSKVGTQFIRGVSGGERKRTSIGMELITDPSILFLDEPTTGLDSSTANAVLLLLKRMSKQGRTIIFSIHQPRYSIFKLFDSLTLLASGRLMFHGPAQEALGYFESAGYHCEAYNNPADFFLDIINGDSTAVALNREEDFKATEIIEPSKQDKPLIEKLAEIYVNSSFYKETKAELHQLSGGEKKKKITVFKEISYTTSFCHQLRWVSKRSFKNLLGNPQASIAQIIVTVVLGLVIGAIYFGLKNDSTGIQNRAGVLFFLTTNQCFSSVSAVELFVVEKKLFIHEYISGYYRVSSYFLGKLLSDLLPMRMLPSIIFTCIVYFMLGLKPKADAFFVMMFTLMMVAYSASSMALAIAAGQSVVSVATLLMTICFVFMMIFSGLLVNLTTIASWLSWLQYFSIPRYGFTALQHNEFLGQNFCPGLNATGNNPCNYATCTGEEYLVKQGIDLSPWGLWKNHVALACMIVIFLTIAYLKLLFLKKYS

[2] = molecular target: T1, ATP-binding cassette subfamily G member 2 (ABCG2); assay: biochemical

EC50 [2] [nM]	SMILES	[3H]-mitoxantrone accumulation and efflux assay in ABCG2-overexpressing cells (1) [1]
–	COc1ccc2c3c([nH]c2c1)[C@H](C=C(C)C)N1C(=O)[C@@H]2CCCN2C(=O)[C@@H]1C3 [Fumitremorgin C]	efficacy of cabozantinib on increasing intracellular accumulation of [^3H]-MX in resistant cell line is comparable to that of FTC
734	COc1cc2nccc(Oc3ccc(NC(=O)C4(C(=O)Nc5ccc(F)cc5)CC4)cc3)c2cc1OC [cabozantinib]	–
